Measured values from PubChem BioAssay AID743399 (Broad Institute, 2014).
Inconclusive results are not listed. The source made the active and inactive calls.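 Rule for the calls: active = compounds lowering the signal whose fitted AC50 is no more than twice their top tested dose; inconclusive = flat curve with activity from -70 to -30%, or bad fit; inactive = the rest.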

System: not listed separately
Assay: enhancers of miR-122 activity, Renilla sensor – cell-based, psiCHECK-miR122, Huh7, dry powder, miR-122 modulator project, dose response (AID 743399)
Details: Huh7 psiCHECK-miR122 Renilla luciferase reporter, 48 h; at 35 µM (top of the series)

| Structure (SMILES) | activity change, negative = miR122 activation |
| --- | --- |
| CCOC(=O)N1CCC(NC(=O)c2ccc3c(c2)sc2nc(-c4ccccc4)cn23)CC1 | -23.1% (inactive) |
| CN1C(=O)c2cc(NC(=O)c3cccc(F)c3)ccc2OC[C@H]2O[C@@H](CC(=O)O)CC[C@H]21 | 52.2% (inactive) |
| O=C(c1ccc(CN2CCOCC2)cc1)N1CCc2ccccc21 | 15.4% (inactive) |
| O=C(NCc1ccccc1Cl)c1ccc(CNc2c(NC3CCCCC3)c(=O)c2=O)cc1 | -30.8% (inactive) |
| O=C(CN=C1NS(=O)(=O)c2ccccc21)Nc1ccccc1N1CCCCCC1 | -23.1% (inactive) |
| O=S(=O)(NCCc1ccncc1)c1ccccc1 | 515% (inactive) |
| C[C@H]1CN([C@@H](C)CO)C(=O)c2cc(-c3ccc(C#N)cc3)cnc2O[C@H]1CN(C)C(=O)c1ccccc1 | 10.9% (inactive) |
| CCCCN(CCCC)C(=O)CN(C)S(=O)(=O)c1ccc2c(c1)n(C)c(=O)c(=O)n2C | 46.2% (inactive) |
| CN1C(=O)c2cc(NC(=O)c3cccc(F)c3)ccc2OC[C@H]2O[C@H](CC(=O)O)CC[C@@H]21 | -21.7% (inactive) |
| CN1C(=O)c2cc(NC(=O)c3cccc(F)c3)ccc2OC[C@H]2O[C@@H](CC(=O)O)CC[C@@H]21 | 20.2% (inactive) |
| Cc1cc(C(C)(C)C)cc(S(=O)(=O)N2CCOCC2)c1C | 92.3% (inactive) |
| COCC(=O)N(C)C[C@@H]1Oc2ncc(-c3ccc(C#N)cc3)cc2C(=O)N([C@@H](C)CO)C[C@@H]1C | -4.35% (inactive) |
| C[C@H]1CN([C@@H](C)CO)C(=O)c2cc(-c3ccc(C#N)cc3)cnc2O[C@H]1CN(C)Cc1cncnc1 | -10.9% (inactive) |
| C/C=C/c1cnc2c(c1)C(=O)N([C@@H](C)CO)C[C@H](C)[C@H](CN(C)S(=O)(=O)c1ccc(OC)cc1)O2 | 26.1% (inactive) |
| CN1C(=O)c2cc(NC(=O)c3cccc(F)c3)ccc2OC[C@H]2O[C@H](CC(=O)O)CC[C@H]21 | -17.4% (inactive) |
| CO[C@@H]1CN(C)C(=O)c2cc(NC(=O)c3ccc4c(c3)OCO4)ccc2OC[C@H](C)NC[C@@H]1C | -21.7% (inactive) |
| Cn1c(=O)c(=O)n(C)c2cc(S(=O)(=O)N3CCOCC3)ccc21 | 0% (inactive) |
| CCOC(=O)N1CCC(NC(=O)c2ccc3nc(N4CCC(C)CC4)sc3c2)CC1 | 53.8% (inactive) |
| CO[C@@H]1CN(C)C(=O)c2cc(NS(=O)(=O)c3ccc(Oc4ccccc4)cc3)ccc2OC[C@H](C)NC[C@@H]1C | 8.7% (inactive) |
| CN1C(=O)c2cc(NC(=O)c3cccc(F)c3)ccc2OC[C@@H]2O[C@H](CC(=O)O)CC[C@@H]21 | -15.2% (inactive) |
| COc1cccc(C(=O)Nc2ccc3c(c2)C(=O)N(C)C[C@@H](OC)[C@@H](C)CN[C@@H](C)CO3)c1 | 4.35% (inactive) |
| CN1C(=O)c2cc(NC(=O)c3cccc(F)c3)ccc2OC[C@@H]2O[C@H](CC(=O)O)CC[C@H]21 | -41.3% (inactive) |
| O=C(Nc1ccc(-c2nc3ccccc3o2)cc1)c1cc(-n2cnnc2)ccc1Cl | 0% (inactive) |
| CN1C(=O)c2cc(NC(=O)c3cccc(F)c3)ccc2OC[C@@H]2O[C@@H](CC(=O)O)CC[C@@H]21 | -10.9% (inactive) |

System: Huh7 psiCHECK-miR122 Renilla luciferase reporter, 48 h
Assay: as above
Details: not given

| Structure (SMILES) | AC50 |
| --- | --- |
| C[C@H]1CN([C@@H](C)CO)C(=O)c2cc(-c3ccc(C#N)cc3)cnc2O[C@H]1CN(C)C(=O)Nc1ccc(C(F)(F)F)cc1 | 6.96 µM |
| COCC(=O)N(C)C[C@H]1Oc2cc(C#Cc3cccnc3)ccc2S(=O)(=O)N([C@H](C)CO)C[C@H]1C | < 0.26 µM |
| C[C@H](CO)N1C[C@H](C)[C@@H](CN(C)C(=O)C2CCOCC2)Oc2cc(C#Cc3ccncc3)ccc2S1(=O)=O | 5.46 µM |
| COCC(=O)N(C)C[C@H]1Oc2cc(-c3ccccc3F)ccc2S(=O)(=O)N([C@@H](C)CO)C[C@H]1C | 0.278 µM |
| C[C@H]1CN([C@@H](C)CO)S(=O)(=O)c2ccc(C#Cc3ccncc3)cc2O[C@@H]1CN(C)C(=O)C1CCOCC1 | 9.44 µM |
| Cc1cccc(NC(=O)Nc2ccc3c(c2)C(=O)N(C)[C@@H]2CC[C@H](CC(=O)NCc4ccccc4Cl)O[C@H]2CO3)c1 | 22.2 µM |
| OCc1ccc(-c2nn(Cc3ccccc3)c3ccccc23)o1 | 0.449 µM |
| CNC[C@@H]1Oc2cc(C#CC3CCCCC3)ccc2S(=O)(=O)N([C@@H](C)CO)C[C@@H]1C | 14.4 µM |
| O=C(CNCCC1=CCCCC1)Nc1ccccc1N1CCCCCC1 | 16.3 µM |
| Nc1ccc(Oc2ccc(Br)cc2)cc1 | 1.09 µM |
| CCCC#Cc1ccc2c(c1)O[C@H](CN(C)C(=O)c1ccncc1)[C@H](C)CN([C@@H](C)CO)S2(=O)=O | 12.8 µM |
| CCCC#Cc1ccc2c(c1)O[C@H](CN(C)C(=O)COC)[C@H](C)CN([C@@H](C)CO)S2(=O)=O | 1.1 µM |
| CN1C(=O)c2cc(NC(=O)c3cccc(F)c3)ccc2OC[C@@H]2O[C@@H](CC(=O)O)CC[C@H]21 | > 60 µM (inactive) |
| COc1cccc(-c2ccc3c(c2)O[C@H](CN(C)C(=O)C2CCOCC2)[C@H](C)CN([C@@H](C)CO)S3(=O)=O)c1 | 4.07 µM |
| Cc1cc(C(C)(C)C)cc(S(=O)(=O)NCCc2ccncc2)c1C | 2.34 µM |
| C[C@@H]1CN([C@H](C)CO)S(=O)(=O)c2ccc(C#Cc3ccncc3)cc2O[C@@H]1CN(C)C(=O)C1CCOCC1 | 0.896 µM |

| Structure (SMILES) | AC50 |
| --- | --- |
| CN(C)CCN1C(=O)c2cccc3cc(N)cc(c23)C1=O | 10.7 µM |
| C[C@@H]1CN([C@@H](C)CO)S(=O)(=O)c2ccc(C#Cc3ccncc3)cc2O[C@@H]1CN(C)C(=O)C1CCOCC1 | 0.838 µM |
| O=C(c1ccc(CNc2c(NC3CCCCC3)c(=O)c2=O)cc1)N1CCc2ccccc21 | 1.18 µM |
| C[C@@H]1CN([C@H](C)CO)S(=O)(=O)c2ccc(/C=C/c3ccccc3)cc2O[C@@H]1CN(C)C(=O)c1cccnc1 | 7.29 µM |
| COc1ccc(S(=O)(=O)N(C)C[C@@H]2Oc3ncc(/C=C/c4ccccc4)cc3C(=O)N([C@@H](C)CO)C[C@@H]2C)cc1 | 22.1 µM |
| C[C@H]1CN([C@@H](C)CO)S(=O)(=O)c2ccc(C#Cc3ccncc3)cc2O[C@H]1CN(C)C(=O)C1CCOCC1 | 20.7 µM |
| COCC(=O)N(C)C[C@H]1Oc2cc(-c3ccc(C#N)cc3)ccc2S(=O)(=O)N([C@H](C)CO)C[C@H]1C | 0.324 µM |
| CO[C@@H]1CN(C)C(=O)c2cc(NC(=O)c3cccc(Oc4ccccc4)c3)ccc2OC[C@H](C)NC[C@@H]1C | 7.62 µM |
| COCC(=O)N(C)C[C@H]1Oc2cc(-c3ccc(C#N)cc3)ccc2S(=O)(=O)N([C@@H](C)CO)C[C@H]1C | 0.341 µM |
| COCC(=O)N(C)C[C@H]1Oc2cc(-c3ccccc3F)ccc2S(=O)(=O)N([C@H](C)CO)C[C@H]1C | < 0.26 µM |
| COCC(=O)N(C)C[C@H]1Oc2cc(C#Cc3cccnc3)ccc2S(=O)(=O)N([C@@H](C)CO)C[C@H]1C | 0.354 µM |
| C[C@H]1CN([C@@H](C)CO)C(=O)c2cc(C#Cc3ccccc3F)cnc2O[C@H]1CN(C)C(=O)C1CCCCC1 | 20.6 µM |
| CCn1cc(C(=O)O)c(=O)c2cc(F)c(N3CCNCC3)nc21 | > 70 µM (inactive) |
| Nc1ccc(Oc2ccc(Cl)cc2)cc1 | 3.4 µM |
| C[C@@H]1CN([C@H](C)CO)S(=O)(=O)c2ccc(C#Cc3ccncc3)cc2O[C@H]1CN(C)C(=O)C1CCOCC1 | 0.496 µM |
